We go through 22 compounds from patent US9090593B2, “Bicyclic compounds as Pim inhibitors” (AMGEN INC., priority 2010, dated 2015).

In assay [1] the target is T1, full length recombinant Pim-1 protein (Homo sapiens, UniProt P11309).
T1 construct: by full length recombinant Pim-1, Pim-2, or Pim-3 protein; hexahistidine tag followed by a thrombin cleavage site (N); made in house; host or cells: Sf9 (baculovirus) or E. coli (pET28)
Description: Pim-1 enzyme assay (HTRF, phosphorylation of biotinylated-BAD (S112) peptide). Conditions: enzyme assay, Pim-1; read-out: Pim_1_IC50. It counts as biochemical. The procedure, abridged:
(§1)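 Full-length human Pim-1 or Pim-2 (His6-tagged, Sf9 or E. coli expressed, Ni and Superdex 75 purified) phosphorylates biotinylated BAD (S112) peptide in 60 mM Hepes pH 7.0, 0.05% BSA, 2 mM DTT. Stopped with 3 mM EDTA; HTRF read with Eu anti-phospho-BAD and streptavidin-APC. IC50 from 4-parameter logistic fit of percent of control.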

Assay [2] deals with T2, Pim-2 stably transfected into the U2OS human osteogenic sarcoma line (Homo sapiens, UniProt Q9P1W9).
T2 construct: expressed in transfected cells; host or cells: U2OS human osteogenic sarcoma line
The experiment in a line: Pim cell assay, phospho-BAD normalized against total BAD, U2OS stably transfected with Pim-2. Further: high dose 31.6 µM. Format: cell-based. The conditions noted are these: read-out: Pim2_Cell_IC50. The procedure, abridged: (§2)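 U2OS cells stably expressing Pim-1 or Pim-2 were plated overnight at 37 °C, then dosed over a 10-point curve (final 0.3% DMSO; DMSO alone as high control). Lysates assayed for phospho- and total BAD by Meso Scale immunoassay; % phosphoprotein = (2×phospho)/(phospho+total)×100.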

Assay [3] addresses T3, full length recombinant Pim-2 protein (Homo sapiens, UniProt Q9P1W9).
T3 construct: by full length recombinant Pim-1, Pim-2, or Pim-3 protein; hexahistidine tag followed by a thrombin cleavage site (N); made in house; host or cells: Sf9 (baculovirus) or E. coli (pET28)
The experiment in a line: Pim-2 enzyme assay (HTRF, phosphorylation of biotinylated-BAD (S112) peptide). It counts as biochemical. Conditions: enzyme assay, Pim-2; read-out: Pim2_IC50. The method in brief:
as §1

Assay [4] deals with T4, full length recombinant Pim-3 protein (Homo sapiens, UniProt Q86V86).
T4 construct: by full length recombinant Pim-1, Pim-2, or Pim-3 protein; purchased Millipore (UK)
Description: Pim-3 enzyme assay (HTRF, phosphorylation of biotinylated-BAD (S112) peptide). Format: biochemical. The conditions noted are these: read-out: Pim3 IC50. The procedure, abridged: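 Full-length recombinant Pim-3 phosphorylates biotinylated BAD (S112) peptide in 60 mM Hepes pH 7.0, 0.05% BSA, 2 mM DTT; reaction stopped with 3 mM EDTA. Phospho-BAD detected by HTRF (Eu anti-phospho-BAD S112 antibody, streptavidin-APC). IC50 from percent-of-control values fitted to a 4-parameter logistic model.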
Background: TR-FRET usually uses a lanthanide donor and a delayed reading to cut background.

Assay [5] deals with T5, Pim-1 stably transfected into the U2OS human osteogenic sarcoma line (Homo sapiens, UniProt P11309).
T5 construct: expressed in transfected cells; host or cells: U2OS human osteogenic sarcoma line
Description: Pim cell assay, phospho-BAD normalized against total BAD, U2OS stably transfected with Pim-1. Format: cell-based. The conditions noted are these: read-out: Pim1_Cell_IC50. The procedure, abridged:
as §2

Where [6] appears, read: U2OS cells stably transfected with Pim-1, phospho-BAD, high dose […].
The mark [7] stands for this setting: U2OS cells stably transfected with Pim-2, phospho-BAD, high dose […].

Read-outs that look alike come from different tables or passages of the source.

T2 sequence (Q9P1W9 whole entry): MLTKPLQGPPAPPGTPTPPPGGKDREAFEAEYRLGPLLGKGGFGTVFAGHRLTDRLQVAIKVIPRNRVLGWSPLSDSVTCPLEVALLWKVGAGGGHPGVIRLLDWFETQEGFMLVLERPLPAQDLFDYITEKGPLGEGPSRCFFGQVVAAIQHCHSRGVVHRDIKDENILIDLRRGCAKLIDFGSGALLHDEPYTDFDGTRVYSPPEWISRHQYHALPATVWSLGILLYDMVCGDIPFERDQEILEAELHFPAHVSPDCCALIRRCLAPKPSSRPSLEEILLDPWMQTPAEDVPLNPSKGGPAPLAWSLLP
T3 sequence (Q9P1W9 whole entry): as above
T1 sequence (P11309 whole entry): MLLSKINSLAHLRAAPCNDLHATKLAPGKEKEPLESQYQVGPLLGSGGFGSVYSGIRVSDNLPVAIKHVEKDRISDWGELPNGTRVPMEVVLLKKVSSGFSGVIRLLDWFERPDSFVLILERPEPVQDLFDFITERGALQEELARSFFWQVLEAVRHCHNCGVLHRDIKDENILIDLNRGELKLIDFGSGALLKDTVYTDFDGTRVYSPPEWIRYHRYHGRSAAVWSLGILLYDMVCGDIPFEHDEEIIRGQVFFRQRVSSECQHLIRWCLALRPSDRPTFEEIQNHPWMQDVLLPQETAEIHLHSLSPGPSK
T5 sequence (P11309 whole entry): as above

For the compound `NC1CCN(c2cncc(-c3c[nH]c4ccc([N+](=O)[O-])cc34)n2)CC1` [Example 232, 1-(6-(5-nitro-1H-indol-3-yl)pyrazin-2-yl)piperidin-4-amine], the IC50 is 0.047 µM in assay [1], over 15.8 µM in assay [2], 0.065 µM in assay [3] and 0.028 µM in assay [4].
Consider `COc1cc(-c2ccc3[nH]nc(-c4cncc(O[C@@H]5CCCNC5)n4)c3c2)ccn1` [Example 160, 5-(2-methoxy-4-pyridinyl)-3-(6-((3R)-3-piperidinyloxy)-2-pyrazinyl)-1H-indazole], for which the IC50 in assay [1] was 0.005 µM; in assay [3], 0.024 µM; in assay [5] (setting [6]) it was 0.108 µM; in assay [4], 0.012 µM.
With `NC1CCN(c2cncc(-c3n[nH]c4ccc(N5CCOCC5)cc34)n2)CC1` [Example 89, 1-(6-(5-(4-morpholinyl)-1H-indazol-3-yl)-2-pyrazinyl)-4-piperidinamine], the IC50 in assay [1] worked out at 0.028 µM; in assay [3], 0.303 µM; in assay [5] (setting [6]) it was 0.868 µM; in assay [4], 0.049 µM.
Consider `COC(=O)c1ccc2[nH]cc(-c3cncc(N4CCC(N)CC4)n3)c2c1` [Example 236, methyl 3-(6-(4-aminopiperidin-1-yl)pyrazin-2-yl)-1H-indole-5-carboxylate], for which the IC50 in assay [1] was 0.005 µM; in assay [2], 5.82 µM; in assay [3], 0.044 µM; in assay [4] it was 0.007 µM.
Consider `CN(C)c1cccc(-c2ccc3[nH]nc(-c4cncc(N5CCC(N)CC5)n4)c3c2)c1` [Example 108, 1-(6-(5-(3-(dimethylamino)phenyl)-1H-indazol-3-yl)-2-pyrazinyl)-4-piperidinamine], for which the IC50 in assay [1] turned out to be 0.009 µM; in assay [3] it was 0.153 µM; in assay [5] (setting [6]), 0.866 µM; in assay [4], 0.006 µM.
Take `O=C(NC1CC1)c1cncc(-c2ccc3[nH]nc(-c4cncc(O[C@@H]5CCCNC5)n4)c3c2)c1` [Example 159, N-cyclopropyl-5-(3-(6-((3R)-3-piperidinyloxy)-2-pyrazinyl)-1H-indazol-5-yl)-3-pyridinecarboxamide]: the IC50 came to 0.002 µM in assay [1], 0.071 µM in assay [3], 0.75 µM in assay [5] (setting [6]) and 0.001 µM in assay [4].
As for `CC(C)Oc1cccc(-c2ccc3[nH]nc(-c4cncc(O[C@@H]5CCCNC5)n4)c3c2)c1` [Example 146, 5-(3-(1-methylethoxy)phenyl)-3-(6-((3R)-3-piperidinyloxy)-2-pyrazinyl)-1H-indazole], the IC50 in assay [1] worked out at 0.007 µM; in assay [3], 0.084 µM; in assay [5] (setting [6]) it was 0.996 µM; in assay [4], 0.031 µM.
As to `O=C1CN(c2cncc(-c3c[nH]c4ccc(-c5c(F)cccc5F)cc34)n2)CCN1` [Example 204, 4-(6-(5-(2,6-difluorophenyl)-1H-indol-3-yl)-2-pyrazinyl)-2-piperazinone], the IC50 in assay [1] worked out at 0.08 µM; in assay [3], 0.987 µM; in assay [5] it was 2.23 µM; in assay [4] it was 0.098 µM.
Consider `C(=C\C1CC1)/c1ccc2[nH]nc(-c3cncc(O[C@@H]4CCCNC4)n3)c2c1` [Example 147, 5-((E)-2-cyclopropylethenyl)-3-(6-((3R)-3-piperidinyloxy)-2-pyrazinyl)-1H-indazole], for which the IC50 in assay [1] was found to be 0.007 µM; in assay [3] it was 0.105 µM; in assay [5] (setting [6]) it was 0.724 µM; in assay [4] it was 0.013 µM.
For the compound `CN1CCOc2cc(-c3ccc4[nH]nc(-c5cncc(O[C@@H]6CCCNC6)n5)c4c3)ccc21` [Example 123, 4-methyl-7-(3-(6-((3R)-3-piperidinyloxy)-2-pyrazinyl)-1H-indazol-5-yl)-3,4-dihydro-2H-1,4-benzoxazine], the IC50 in assay [1] amounted to 0.001 µM; in assay [2] (setting [7]), 3.52 µM; in assay [3], 0.01 µM; in assay [4], 0.006 µM.
As for `O=C(NC1CC1)c1ccnc(-c2ccc3[nH]nc(-c4cncc(O[C@@H]5CCCNC5)n4)c3c2)c1` [Example 157, N-cyclopropyl-2-(3-(6-((3R)-3-piperidinyloxy)-2-pyrazinyl)-1H-indazol-5-yl)-4-pyridinecarboxamide], the IC50 is 0.012 µM in assay [1], 0.032 µM in assay [3], 1.74 µM in assay [5] (setting [6]) and 0.012 µM in assay [4].
With `C1=C(c2ccc3[nH]nc(-c4cncc(O[C@@H]5CCCNC5)n4)c3c2)COCC1` [Example 154, 5-(5,6-dihydro-2H-pyran-3-yl)-3-(6-((3R)-3-piperidinyloxy)-2-pyrazinyl)-1H-indazole], the IC50 in assay [1] came to 0.015 µM; in assay [3], 0.071 µM; in assay [5] (setting [6]), 0.772 µM; in assay [4], 0.016 µM.
Consider `c1cc2c(cc1-c1ccc3[nH]nc(-c4cncc(O[C@@H]5CCCNC5)n4)c3c1)OCCO2` [Example 140, 5-(2,3-dihydro-1,4-benzodioxin-6-yl)-3-(6-((3R)-3-piperidinyloxy)-2-pyrazinyl)-1H-indazole], for which the IC50 was found to be 0.002 µM in assay [1], 7.78 µM in assay [2] (setting [7]), 0.019 µM in assay [3] and 0.006 µM in assay [4].
With `CC(C)Oc1cncc(-c2ccc3[nH]nc(-c4cncc(O[C@@H]5CCCNC5)n4)c3c2)c1` [Example 120, 5-(5-(1-methylethoxy)-3-pyridinyl)-3-(6-((3R)-3-piperidinyloxy)-2-pyrazinyl)-1H-indazole], the IC50 in assay [1] came to 0.003 µM; in assay [3], 0.098 µM; in assay [5] (setting [6]), 0.145 µM; in assay [4] it was 0.008 µM.
On to `Nc1nccc(N2CCc3ccc(-c4ccc5[nH]nc(-c6cncc(N7CCC(N)CC7)n6)c5c4)cc32)n1` [Example 113, 4-(6-(3-(6-(4-amino-1-piperidinyl)-2-pyrazinyl)-1H-indazol-5-yl)-2,3-dihydro-1H-indol-1-yl)-2-pyrimidinamine], for which the IC50 in assay [1] is 0.017 µM; in assay [3], 0.549 µM; in assay [5] (setting [6]), over 15.8 µM; in assay [4] it was 0.033 µM.
As to `Nc1cc(-c2ccc3[nH]nc(-c4cncc(N5CCC(N)CC5)n4)c3c2)ccc1N1CCOCC1` [Example 105, 1-(6-(5-(3-amino-4-(4-morpholinyl)phenyl)-1H-indazol-3-yl)-2-pyrazinyl)-4-piperidinamine], the IC50 in assay [1] was 0.002 µM; in assay [3], 0.043 µM; in assay [5] (setting [6]), 0.484 µM; in assay [4], 0.005 µM.
As to `COc1nccc(-c2ccc3[nH]nc(-c4cncc(O[C@@H]5CCCNC5)n4)c3c2)n1` [Example 152, 5-(2-methoxy-4-pyrimidinyl)-3-(6-((3R)-3-piperidinyloxy)-2-pyrazinyl)-1H-indazole], the IC50 in assay [1] amounted to 0.007 µM; in assay [3], 0.036 µM; in assay [5] (setting [6]), 1.06 µM; in assay [4], 0.007 µM.
As to `C1=C(c2ccc3[nH]nc(-c4cncc(O[C@@H]5CCCNC5)n4)c3c2)CCOC1` [Example 148, 5-(3,6-dihydro-2H-pyran-4-yl)-3-(6-((3R)-3-piperidinyloxy)-2-pyrazinyl)-1H-indazole], the IC50 in assay [1] came to 0.006 µM; in assay [3], 0.025 µM; in assay [5] (setting [6]) it was 0.314 µM; in assay [4], 0.007 µM.
For `COc1nc2ccccc2cc1-c1ccc2[nH]nc(-c3cncc(N4CCC(N)CC4)n3)c2c1` [Example 2, 1-(6-(5-(2-methoxyquinolin-3-yl)-1H-indazol-3-yl)pyrazin-2-yl)piperidin-4-amine], the IC50 was 0.028 µM in assay [1], 0.769 µM in assay [3], 2.63 µM in assay [5] (setting [6]) and 0.061 µM in assay [4].
Regarding `NC1CCN(c2cncc(-c3n[nH]c4ccc(-c5cc6ccccc6nc5O)cc34)n2)CC1` [Example 54, 3-(3-(6-(4-amino-1-piperidinyl)-2-pyrazinyl)-1H-indazol-5-yl)-2-quinolinol], the IC50 was found to be 0.007 µM in assay [1], 0.183 µM in assay [3], 3.66 µM in assay [5] (setting [6]) and 0.004 µM in assay [4].
With `Fc1cccc(F)c1-c1ccc2[nH]nc(-c3cncc(N4CCOCC4)n3)c2c1` [Example 169, 5-(2,6-difluorophenyl)-3-(6-(4-morpholinyl)-2-pyrazinyl)-1H-indazole], the IC50 worked out at 0.069 µM in assay [1], 1.64 µM in assay [3], 2.41 µM in assay [5] (setting [6]) and 0.092 µM in assay [4].
Turning to `N[C@@H]1CCCN(c2cncc(-c3c[nH]c4ccc(-c5c(F)cccc5F)cc34)n2)C1` [Example 203, (3R)-1-(6-(5-(2,6-difluorophenyl)-1H-indol-3-yl)-2-pyrazinyl)-3-piperidinamine], the IC50 worked out at 0.008 µM in assay [1], 0.184 µM in assay [3], 3.05 µM in assay [5] (setting [6]) and 0.018 µM in assay [4].
